Broadly, the inhibition is the drop in the measured response relative to a control, in per cent.

Series [1] has as its target Tyrosine-protein kinase SYK (Homo sapiens) (UniProt P43405). As to the kind of experiment: Inhibition of recombinant full length GST-tagged human SYK expressed in baculovirus expression system at 0.5 uM using tyr 02 as substrate in presence of ATP at Km concentration after 1 hr by Z'-LYTE assay relative to control.
Series [2] addresses Focal adhesion kinase 1 (Homo sapiens, UniProt Q05397). In words: Inhibition of recombinant full length GST-tagged human FAK cytoplasmic domain expressed in baculovirus expression system at 0.5 uM using tyr 07 as substrate in presence of ATP at Km concentration after 1 hr by Z'-LYTE assay relative to control.
Series [3] has as its target Hepatocyte growth factor receptor (Homo sapiens) (UniProt P08581). In words: Inhibition of recombinant full length N-terminal His-tagged human cMET cytoplasmic domain (956 to 1390 residues) expressed in baculovirus expression system at 0.5 uM using tyr 06 as substrate in presence of ATP at Km concentration after 1 hr by Z'-LYTE assay relative to control.
Series [4] concerns the target Mitogen-activated protein kinase 1 (Homo sapiens) (UniProt P28482). As to the kind of experiment: Inhibition of recombinant full length GST-tagged human ERK2 expressed in Escherichia coli at 0.5 uM using Ser/Thr 03 as substrate in presence of ATP at Km concentration after 1 hr by Z'-LYTE assay relative to control.
Series [5] concerns the target Receptor tyrosine-protein kinase erbB-2 (Homo sapiens) (UniProt P04626). In words: Inhibition of recombinant His-tagged human HER2 (676 to 1255 residues) expressed in baculovirus expression system at 0.5 uM using tyr 06 as substrate in presence of ATP at Km concentration after 1 hr by Z'-LYTE assay relative to control.
Series [6] deals with CDK2/Cyclin A2 (Homo sapiens) (UniProt P24941+P20248). In words: Inhibition of recombinant full-legth His-tagged human CDK2/CyclinA expressed in baculovirus expression system at 0.5 uM using Ser/Thr 12 as substrate in presence of ATP at Km concentration after 1 hr by Z'-LYTE assay relative to control.
The target in series [7] is RAC-alpha serine/threonine-protein kinase (Homo sapiens) (UniProt P31749). As to the kind of experiment: Inhibition of recombinant full-legth His-tagged human AKT1 expressed in baculovirus expression system at 0.5 uM using Ser/Thr 06 as substrate in presence of ATP at Km concentration after 1 hr by Z'-LYTE assay relative to control.
Series [8] in a line: Intrinsic clearance in mouse liver at 1 uM measured up to 1 hr in presence of NADPH by LC-MS/MS analysis. It is filed as ADME, tissue-based.
Series [9] deals with A549. As to the kind of experiment: Induction of apoptosis in human A549 cells after 72 hrs by Annexin V-FITC/propidium iodide staining-based flow cytometric analysis. It is filed as functional, cell-based.

Sequence of Hepatocyte growth factor receptor (Homo sapiens) (P08581 whole entry, the tested form may be a part): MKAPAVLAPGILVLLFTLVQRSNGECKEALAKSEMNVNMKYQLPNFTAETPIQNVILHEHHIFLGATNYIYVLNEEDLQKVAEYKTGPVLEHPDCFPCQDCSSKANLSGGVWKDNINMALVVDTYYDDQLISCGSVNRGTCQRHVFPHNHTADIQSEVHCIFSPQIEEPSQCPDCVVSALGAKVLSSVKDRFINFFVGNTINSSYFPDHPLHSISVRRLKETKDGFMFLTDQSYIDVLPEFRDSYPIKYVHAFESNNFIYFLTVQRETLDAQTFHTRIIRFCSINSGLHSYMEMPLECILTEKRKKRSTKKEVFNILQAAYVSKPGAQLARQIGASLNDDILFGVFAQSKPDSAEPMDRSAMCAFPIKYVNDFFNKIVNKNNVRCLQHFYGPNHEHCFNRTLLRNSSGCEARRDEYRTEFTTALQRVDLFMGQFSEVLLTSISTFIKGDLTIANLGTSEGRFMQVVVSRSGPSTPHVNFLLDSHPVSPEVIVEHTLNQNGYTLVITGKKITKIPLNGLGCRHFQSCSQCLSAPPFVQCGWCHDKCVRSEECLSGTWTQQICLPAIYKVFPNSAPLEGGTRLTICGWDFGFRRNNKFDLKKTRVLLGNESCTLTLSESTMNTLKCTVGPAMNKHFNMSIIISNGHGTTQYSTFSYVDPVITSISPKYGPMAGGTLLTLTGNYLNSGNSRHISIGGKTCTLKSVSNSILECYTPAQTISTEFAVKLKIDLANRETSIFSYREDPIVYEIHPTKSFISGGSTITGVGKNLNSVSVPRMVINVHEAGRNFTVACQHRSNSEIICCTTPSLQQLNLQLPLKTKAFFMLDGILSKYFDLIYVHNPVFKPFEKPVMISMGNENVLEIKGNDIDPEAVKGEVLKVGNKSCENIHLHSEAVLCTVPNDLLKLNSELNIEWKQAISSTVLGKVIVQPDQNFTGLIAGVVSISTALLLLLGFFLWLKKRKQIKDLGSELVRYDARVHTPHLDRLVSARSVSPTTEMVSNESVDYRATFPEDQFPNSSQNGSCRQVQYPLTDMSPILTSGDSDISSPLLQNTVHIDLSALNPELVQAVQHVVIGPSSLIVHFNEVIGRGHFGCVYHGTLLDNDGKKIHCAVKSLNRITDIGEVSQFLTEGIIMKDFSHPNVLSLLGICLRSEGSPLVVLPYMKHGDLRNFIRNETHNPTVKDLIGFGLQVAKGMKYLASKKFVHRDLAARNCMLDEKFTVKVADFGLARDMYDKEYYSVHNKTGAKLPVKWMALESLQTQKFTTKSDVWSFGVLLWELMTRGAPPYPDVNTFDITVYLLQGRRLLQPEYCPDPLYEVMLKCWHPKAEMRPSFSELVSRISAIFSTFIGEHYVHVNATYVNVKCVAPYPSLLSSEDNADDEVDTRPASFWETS
Sequence of Mitogen-activated protein kinase 1 (Homo sapiens) (P28482 whole entry, the tested form may be a part): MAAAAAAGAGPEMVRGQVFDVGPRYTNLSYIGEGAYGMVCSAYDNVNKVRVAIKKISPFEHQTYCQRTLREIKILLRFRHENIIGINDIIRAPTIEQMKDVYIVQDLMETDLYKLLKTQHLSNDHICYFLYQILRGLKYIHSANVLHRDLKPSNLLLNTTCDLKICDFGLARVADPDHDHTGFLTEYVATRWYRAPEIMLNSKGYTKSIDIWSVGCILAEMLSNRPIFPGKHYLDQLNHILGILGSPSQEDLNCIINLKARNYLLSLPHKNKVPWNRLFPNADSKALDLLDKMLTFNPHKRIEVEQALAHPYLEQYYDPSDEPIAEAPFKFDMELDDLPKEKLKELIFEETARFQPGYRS
Sequence of Receptor tyrosine-protein kinase erbB-2 (Homo sapiens) (P04626 whole entry, the tested form may be a part): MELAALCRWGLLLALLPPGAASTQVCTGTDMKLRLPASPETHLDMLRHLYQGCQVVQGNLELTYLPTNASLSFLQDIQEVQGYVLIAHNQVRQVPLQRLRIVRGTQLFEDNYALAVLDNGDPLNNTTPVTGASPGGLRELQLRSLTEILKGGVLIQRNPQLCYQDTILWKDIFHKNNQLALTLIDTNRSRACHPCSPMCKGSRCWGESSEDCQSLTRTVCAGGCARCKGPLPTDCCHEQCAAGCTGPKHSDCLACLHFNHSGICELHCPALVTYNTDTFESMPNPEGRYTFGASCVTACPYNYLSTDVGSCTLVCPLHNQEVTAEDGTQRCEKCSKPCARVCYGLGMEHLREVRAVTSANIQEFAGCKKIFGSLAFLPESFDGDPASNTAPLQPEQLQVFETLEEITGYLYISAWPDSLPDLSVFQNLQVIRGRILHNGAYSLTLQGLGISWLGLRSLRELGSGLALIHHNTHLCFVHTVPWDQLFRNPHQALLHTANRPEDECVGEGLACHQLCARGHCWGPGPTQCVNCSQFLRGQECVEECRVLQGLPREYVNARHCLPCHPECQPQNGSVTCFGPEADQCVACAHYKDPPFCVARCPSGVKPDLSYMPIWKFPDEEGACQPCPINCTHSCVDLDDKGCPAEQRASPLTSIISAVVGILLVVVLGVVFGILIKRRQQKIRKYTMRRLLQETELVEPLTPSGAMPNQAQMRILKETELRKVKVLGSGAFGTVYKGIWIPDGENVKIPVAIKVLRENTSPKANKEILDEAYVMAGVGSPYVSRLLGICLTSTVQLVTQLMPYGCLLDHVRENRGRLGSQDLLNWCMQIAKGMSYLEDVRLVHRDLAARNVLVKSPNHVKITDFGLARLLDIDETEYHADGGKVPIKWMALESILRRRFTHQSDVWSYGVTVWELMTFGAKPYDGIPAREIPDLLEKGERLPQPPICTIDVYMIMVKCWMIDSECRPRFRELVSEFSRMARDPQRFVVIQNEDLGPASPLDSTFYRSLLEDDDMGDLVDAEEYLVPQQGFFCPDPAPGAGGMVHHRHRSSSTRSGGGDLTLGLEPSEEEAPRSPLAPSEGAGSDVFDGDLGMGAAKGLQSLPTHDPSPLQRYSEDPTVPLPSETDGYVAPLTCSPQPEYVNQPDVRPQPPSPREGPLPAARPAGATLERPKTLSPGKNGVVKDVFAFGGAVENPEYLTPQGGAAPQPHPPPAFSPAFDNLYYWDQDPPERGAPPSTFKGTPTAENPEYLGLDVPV
Sequence of Focal adhesion kinase 1 (Q05397 2-1052 limits assumed): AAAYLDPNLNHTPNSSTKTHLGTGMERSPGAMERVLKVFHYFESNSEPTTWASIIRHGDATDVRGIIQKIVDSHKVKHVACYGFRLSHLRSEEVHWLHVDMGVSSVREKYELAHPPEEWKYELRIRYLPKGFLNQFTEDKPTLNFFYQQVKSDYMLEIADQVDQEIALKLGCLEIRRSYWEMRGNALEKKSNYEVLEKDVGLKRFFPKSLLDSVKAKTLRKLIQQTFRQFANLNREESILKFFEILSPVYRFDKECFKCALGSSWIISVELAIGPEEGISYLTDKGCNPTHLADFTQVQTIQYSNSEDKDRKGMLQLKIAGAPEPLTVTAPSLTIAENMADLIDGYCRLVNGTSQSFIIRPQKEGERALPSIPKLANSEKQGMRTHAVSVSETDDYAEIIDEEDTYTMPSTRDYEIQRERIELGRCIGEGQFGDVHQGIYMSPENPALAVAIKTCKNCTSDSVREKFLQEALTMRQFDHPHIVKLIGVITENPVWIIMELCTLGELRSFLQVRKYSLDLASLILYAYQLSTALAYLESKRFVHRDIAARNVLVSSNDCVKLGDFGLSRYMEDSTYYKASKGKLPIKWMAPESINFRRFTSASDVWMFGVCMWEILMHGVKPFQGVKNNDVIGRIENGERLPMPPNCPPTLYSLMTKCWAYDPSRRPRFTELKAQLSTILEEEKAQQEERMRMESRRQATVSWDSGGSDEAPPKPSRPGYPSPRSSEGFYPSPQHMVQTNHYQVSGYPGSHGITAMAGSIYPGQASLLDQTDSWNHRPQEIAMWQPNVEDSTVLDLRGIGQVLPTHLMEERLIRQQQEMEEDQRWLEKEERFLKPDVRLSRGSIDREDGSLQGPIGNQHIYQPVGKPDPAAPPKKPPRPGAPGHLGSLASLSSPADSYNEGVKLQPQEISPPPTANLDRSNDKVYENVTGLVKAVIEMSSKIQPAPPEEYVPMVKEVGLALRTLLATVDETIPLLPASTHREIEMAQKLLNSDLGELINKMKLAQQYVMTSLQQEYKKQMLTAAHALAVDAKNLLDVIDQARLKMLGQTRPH
Sequence of RAC-alpha serine/threonine-protein kinase (Homo sapiens) (P31749 whole entry): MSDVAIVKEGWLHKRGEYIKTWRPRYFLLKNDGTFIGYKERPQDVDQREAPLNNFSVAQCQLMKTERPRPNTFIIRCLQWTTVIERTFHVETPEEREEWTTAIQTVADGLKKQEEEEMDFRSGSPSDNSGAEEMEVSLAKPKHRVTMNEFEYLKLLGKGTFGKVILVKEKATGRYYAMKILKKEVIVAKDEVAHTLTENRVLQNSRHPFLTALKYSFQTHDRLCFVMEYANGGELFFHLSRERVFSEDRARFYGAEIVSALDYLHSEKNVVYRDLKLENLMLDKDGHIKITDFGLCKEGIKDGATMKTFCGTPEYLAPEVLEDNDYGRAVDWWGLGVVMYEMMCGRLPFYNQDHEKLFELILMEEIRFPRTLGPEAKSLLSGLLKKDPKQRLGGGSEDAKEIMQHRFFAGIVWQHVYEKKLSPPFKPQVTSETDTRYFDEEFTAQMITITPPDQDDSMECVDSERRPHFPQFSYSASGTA

On to `COc1cc(C(=O)NC2CCNCC2)ccc1Nc1nc(Nc2ccccc2P(C)(C)=O)c2cc[nH]c2n1`, for which the inhibition in [1] was 73%; in series [2], 100%; in series [3], -2%; in series [4], 9%; in series [5] it was 12%; in [6] it was 1%. Further, the inhibition in series [7] is 0%. In series [8], the CLH stood at 39.9 mL/min/kg. Besides, the Activity entry in [9] was “Dose-dependent effect”.

These data come from ChEMBL document CHEMBL4311976, “Design, synthesis and biological evaluation of novel 7H-pyrrolo[2,3-d]pyrimidine derivatives as potential FAK inhibitors and anticancer agents” (Eur J Med Chem, 2019).
